Laboratory results as given in ChEMBL document CHEMBL5375951, “Beware the Receptor Variants” (J Med Chem, 2023).

Assay: Agonist activity at MRGPRX4 83S expressed in human HEK293 cells co- expressing Gq assessed as change in intracellular calcium level by calcium mobilization assay
Assay type: cell-based

SMILES	EC50 [µM]
C[C@H](CCC(=O)NCCS(=O)(=O)O)[C@H]1CC[C@H]2[C@@H]3CC[C@@H]4C[C@H](O)CC[C@]4(C)[C@H]3C[C@H](O)[C@]12C [TAURODEOXYCHOLIC ACID]	> 10
C[C@H](CCC(=O)O)[C@H]1CC[C@H]2[C@@H]3CC[C@@H]4C[C@H](O)CC[C@]4(C)[C@H]3C[C@H](O)[C@]12C [DEOXYCHOLIC ACID]	16.9
CC(C)[C@H]1CC[C@H](C(=O)N[C@H](Cc2ccccc2)C(=O)O)CC1 [NATEGLINIDE]	> 10

Continued by falling EC50, values first:

EC50 [µM]	SMILES
13.3	CC12CC3CC(C)(C1)CC(C(=O)N[C@H](Cc1ccccc1)C(=O)O)(C3)C2
0.0112	COc1cccc(CCc2nc3c([nH]2)c(=O)n(CC#N)c(=O)n3CCCCP(=O)(O)O)c1

Assay: Agonist activity at MRGPRX4 83L expressed in human HEK293 cells co- expressing Gq assessed as change in intracellular calcium level by calcium mobilization assay
Assay type: cell-based

EC50 [µM]	SMILES
> 10	C[C@H](CCC(=O)NCCS(=O)(=O)O)[C@H]1CC[C@H]2[C@@H]3CC[C@@H]4C[C@H](O)CC[C@]4(C)[C@H]3C[C@H](O)[C@]12C [TAURODEOXYCHOLIC ACID]
0.00656	CC12CC3CC(C)(C1)CC(C(=O)N[C@H](Cc1ccccc1)C(=O)O)(C3)C2
0.435	COc1cccc(CCc2nc3c([nH]2)c(=O)n(CC#N)c(=O)n3CCCCP(=O)(O)O)c1
